Data: patent publication US20100272717A1, “COMBINATIONS OF THERAPEUTIC AGENTS FOR TREATING CANCER” (NOVARTIS AG, priority 2007, published 2010)

What was measured:
Type in all cases: in vivo
[1] = tested on: MCF-7 human breast adenocarcinoma xenograft; assay: MCF-7 human breast adenocarcinoma xenograft model, anti-tumor activity and tolerability; settings: for anti-tumor activity: FIG. 6 experiment, dose not stated
Source text: A+B, the following formulae can be applied: synergy−(AB)/C<(A/C)×B/C), additive−(AB)/C=(A/C)×(B/C) and antagonistic−(AB)/C>(A/C)×(B/C). […] For example if, the triple combination of A+B+C is to be compared to the activity of the three agents given alone then taking D to be the activity of the vehicle controls the formula defining synergy would be (ABC)/D<(A/D)×(B/D)×(C/D).

[2] = tested on: A549 human non-small cell lung carcinoma xenograft; assay: A549 human non-small cell lung carcinoma xenograft model, anti-tumor activity and tolerability
Source text: (§1) Interactions of combinations can be approximated using a combination index presented by Clark (Breast Cancer Research and Treatment 46, 255-278 (1997)). Taking A to be the activity (T/C) of compound A given alone; B to be the activity of compound B given alone; C the activity in the vehicle controls and AB to be the activity in the combination. A+B, the following formulae can be applied: synergy−(AB)/C<(A/C)×B/C), additive−(AB)/C=(A/C)×(B/C) and antagonistic−(AB)/C>(A/C)×(B/C). […] For example if, the triple combination of A+B+C is to be compared to the activity of the three agents given alone then taking D to be the activity of the vehicle controls the formula defining synergy would be (ABC)/D<(A/D)×(B/D)×(C/D).
The effects of Compound A and Compound B are evaluated for their anti-tumor activity using the A549 human non-small cell lung carcinoma xenograft model.
The effects of 5,6-dimethylxanthenone-4-acetic acid (Compound A) and 4-amino-5-fluoro-3-[5-(4-methylpiperazin-1-yl)-1H-benzimidazol-2-yl]quinolin-2(1H)-one (Compound C) are evaluated for their anti-tumor activity using the A549 human non-small cell lung carcinoma xenograft model.
The effects of 5,6-dimethylxanthenone-4-acetic acid (Compound A) and everolimus are evaluated for their anti-tumor activity using the A549 human non-small cell lung carcinoma xenograft model.
The effect of 5,6-dimethylxanthenone-4-acetic acid (Compound A) and patupilone are evaluated for their anti-tumor activity using the A549 human non-small cell lung carcinoma xenograft model.

[3] = tested on: BT-474 human breast ductal carcinoma xenograft; assay: BT-474 human breast ductal carcinoma xenograft model, anti-tumor activity and tolerability; settings: FIG. 7; Compound A 20 mg/kg intravenously on days 1, 5 and 9
Source text: as §1

[4] = tested on: MDA-MB-231 human breast adenocarcinoma xenograft; assay: MDA-MB-231 human breast adenocarcinoma xenograft model, anti-tumor activity and tolerability; settings: FIG. 1
Procedure: The effect of 5,6-dimethylxanthenone-4-acetic acid (Compound A) and 2-methyl-2-[4-(3-methyl-2-oxo-8-quinolin-3-yl-2,3-dihydro-imidazo[4,5-c]quinolin-1-yl)-phenyl]-propionitrile (Compound B) are evaluated for their anti-tumor activity using the MDA-MB-231 human breast adenocarcinoma xenograft model.
as §1

Compound: CC(=O)O[C@@]12CO[C@@H]1C[C@H](O)[C@@]1(C)C(=O)[C@H](O)C3=C(C)[C@@H](OC(=O)[C@H](O)[C@@H](NC(=O)OC(C)(C)C)c4ccccc4)C[C@@](O)([C@@H](OC(=O)c4ccccc4)[C@H]21)C3(C)C [docetaxel, reference compound]
- anti-tumor activity [1]: inhibition of tumor growth

Compound: CN1CCN(c2ccc3[nH]c(-c4c(N)c5c(F)cccc5[nH]c4=O)nc3c2)CC1 [Compound C, 4-amino-5-fluoro-3-[5-(4-methylpiperazin-1-yl)-1H-benzimidazol-2-yl]quinolin-2(1H)-one]
- anti-tumor activity ([2]; in vivo): dose-dependent activity

Compound: Cc1ccc2c(=O)c3cccc(CC(=O)O)c3oc2c1C [Compound A, 5,6-dimethylxanthenone-4-acetic acid]
- anti-tumor activity (tumor growth) ([1]; FIG. 6, Compound A 20 mg/kg intravenously on days 1, 5 and 9): inhibition of tumor growth
- anti-tumor activity (tumor growth) [3]: inhibition of tumor growth
- anti-tumor activity (tumor growth) ([4]; Compound A 18.6 mg/kg intravenously on days 1, 5 and 9): inhibition of tumor growth
- anti-tumor activity (tumor growth) ([2]; in vivo, ip, 15 mg/kg): inhibition of tumor growth

Compound: Cn1c(=O)n(-c2ccc(C(C)(C)C#N)cc2)c2c3cc(-c4cnc5ccccc5c4)ccc3ncc21 [Compound B, 2-methyl-2-[4-(3-methyl-2-oxo-8-quinolin-3-yl-2,3-dihydro-imidazo[4,5-c]quinolin-1-yl)-phenyl]-propionitrile]
- anti-tumor activity (tumor growth) ([4]; Compound B alone, several dose levels): dose-dependent inhibition of tumor growth
- anti-tumor activity ([2]; FIG. 2, Compound B alone, 20 mg/kg): shows activity

Compound: bevacizumab: monoclonal antibody, marketed as AVASTIN
- anti-tumor activity [1]: no anti-tumor activity

Compound: C/C(=C\c1csc(C)n1)[C@@H]1C[C@@H]2O[C@]2(C)CCC[C@H](C)[C@H](O)[C@@H](C)C(=O)C(C)(C)[C@@H](O)CC(=O)O1 [patupilone, (1S,3S,7S,10R,11S,12S,16R,1′E)-7,11-dihydroxy-8,8,10,12,16-pentamethyl-3-[methyl-2-(2-methylthiazol-4-yl)-vinyl]-4,17-dioxabicyclo[14.1.0]heptadecane-5,9-dione, reference compound]
- anti-tumor activity (tumor growth) ([2]; FIG. 5, patupilone 2 mg/kg intravenously): inhibition of tumor growth
